Like-named read-outs stand apart in the source and are kept apart here.
Assays:
[1] = Population pharmacokinetic model of dabrafenib/hydroxy-dabrafenib (NONMEM) from plasma concentrations; assay type: in vivo, human (patients); conditions: for Vd/F: both sexes, human, plasma, oral, 150 mg twice daily, read-out: V2/F, apparent central volume of distribution of DAB
Source text: Seventy-three outpatients treated with DAB were enrolled from July 2015 to June 2017 in this observational multicentric study including three hospitals of the Assistance Publique—Hôpitaux de Paris (Cochin, Henri Mondor, and Avicenne). To be eligible, patients needed to meet the following criteria: a minimal age of 18 years, metastatic BRAF^V600-mutated solid tumors, treatment with DAB or CombiDT with at least one available DAB concentration measurement.
DAB, dabrafenib-d9 (internal standard, IS), and TRA were purchased from LGC Standards (Molsheim, France). A custom synthesis was developed by Shanghai Medicilon (Shanghai, China) for OHD. The plasma concentrations were assayed using a validated high-performance liquid chromatography-tandem mass spectrometry (HPLC-MS/MS) (ATSQ Quantum Ultra®mass spectrometer, ThermoFisher, Les Ulis, France). Chromatographic separation was performed on Accucore® C18 (2.1 × 50 mm; 2.6 µm) analytical column (ThermoFisher Scientific, Les Ulis, France) associated with a guard column packed with the same bonded phase. Two hundred microliters (µL) aliquot of plasma (calibration standard, internal quality control or patient sample) was mixed with 20 µL of IS solution. Then 600 µL acetonitrile with 1% (v/v) formic acid was added. Samples were mixed and centrifuged, and the supernatant was evaporated and recovered with 200 µL of mobile phase: water/methanol (70:30%, v/v) with formic acid (0.1% v/v). Ten microliters of this mixture were injected into the HPLC-MS/MS system. The calibration standards ranged from 10 to 2000 ng/mL for DAB and OHD and from 5 to 50 ng/mL for TRA.
Blood samples were collected in heparinized tubes during the treatment course, and the exact sample time was recorded. Plasma was separated by centrifugation (3000 rpm, 5 min), and stored at −20 °C until analysis.
The non-linear mixed effects modeling program NONMEM v7.4.1 [34] with the Perl-Speaks NONMEM (PsN) Toolkit v4.8.0 [35] was used to build DAB/OHD and TRA models. Pirana v2.9.2 was used to assist in model development. […] Molar units were used for DAB/OHD analyses. Plasma samples with concentrations below the lower limit of quantification of the assay, non-reliable time information about blood sampling, or without dose information were excluded from the analysis.
A stepwise strategy was used to identify the base models that best fitted DAB/OHD and TRA pharmacokinetic data. Different structural models such as one or two compartments, with linear absorption with or without lag time, were compared. DAB and OHD were modeled simultaneously testing multi-compartment models for both compounds. We hypothesized that DAB was cleared by complete oxidation to OHD, since it is not eliminated as unchanged molecule in urine and accounts for less than 22% in feces. Moreover, the first-order absorption rate constant (ka) of DAB was fixed to 1.8 h^−1 according to a previously published value to allow an adequate estimate of all pharmacokinetic parameters. Since DAB and TRA are administered orally, the pharmacokinetic parameters represent apparent values. Exponential errors following a log-normal distribution were assumed for the description of IIV of all the pharmacokinetic parameters. Inter-occasion variability (IOV) was tested in both DAB/OHD and TRA models to assess differences in individual parameters across study occasions. Additive, proportional, and mixed error models were compared to depict the residual unexplained variability (RUV) for both drugs and metabolite. The correlation between DAB and OHD data was tested using the L2 item in NONMEM. […]

[2] = tested on: BRAF^V600-mutated MM patients; assay: Safety: adverse events and dose-limiting toxicities (DLT) under CombiDT
Procedure: Patients initiated DAB at the recommended daily dose of 150 mg twice daily. In patients treated with CombiDT, TRA was started at 2 mg once daily. Reduced starting doses were allowed at physician discretion based on comorbidities and patients’ general condition. All AE were graded using the National Cancer Institute Common Toxicity Criteria v4.0. DAB treatment was continued until disease progression, unacceptable toxicity, or unfitness to receive it.

[3] = tested on: BRAF^V600-mutated metastatic melanoma; assay: Survival (PFS, OS) and Cox exposure-survival analysis under CombiDT; assay type: in vivo, human (patients)
Procedure: (§1) Pharmacokinetic/pharmacodynamic analysis was conducted in BRAF^V600-mutated MM patients concomitantly treated with CombiDT. Regarding safety, the onset of DLT was considered as the clinical endpoint. A DLT was defined as any toxicity leading to dose reduction or temporary or permanent discontinuation of treatment. Regarding survival, the primary end point was progression free survival (PFS), the time from DAB and TRA treatment initiation to documented progression event (either clinical or radiological progression) or death from any cause. The secondary end-point was overall survival (OS), defined as the time from DAB and TRA treatment initiation to death from any cause. Radiographic evidence of progression was defined according to modified Response Evaluation Criteria in Solid Tumor (RECIST) v1.1 [41].
Multivariate Cox models according to a stepwise procedure were tested including all variables which were significant at 5% level in the univariate analyses.

[4] = design: method as in PMID 24408395; conditions: fixed in base and final model and bootstrap; cited from earlier work
[5] = design: method as in earlier work; conditions: preclinical data; cited from earlier work
[6] = cited from earlier work
[7] = Model-estimated systemic exposure (AUC) in BRAF^V600-mutated MM patients treated with CombiDT; conditions: for AUC: human, plasma, oral
Procedure: as §1
Systemic exposures to DAB, OHD, and TRA (AUCDAB, AUCOHD, and AUCTRA, respectively) were calculated with classic equations, composite DAB and OHD AUC (AUCDAB+OHD) as previously explained and AUCOHD/DAB as the ratio of AUCOHD over AUCDAB. Univariate Fisher and Wilcoxon models were performed to identify which parameters could contribute to the onset of DLT. The following variables were tested: sex, age at treatment initiation, BMI, Eastern Cooperative Oncology Group Performance Status (ECOG PS: grade 0-1 vs ≥2), lactate dehydrogenase (LDH) level (<1.5N vs. ≥1.5N), AUCDAB, AUDOHD, AUCDAB+OHD, and AUCTRA.
Multivariate Cox models according to a stepwise procedure were tested including all variables which were significant at 5% level in the univariate analyses. All the pharmacokinetic/pharmacodynamic analyses were performed using R program v3.6.1 with RStudio v1.1.383 (http://www.r-project.org).

[8] = bootstrap median (n = 500 samples)
[9] = reference models built upon clinical trial data

With `CC(C)(C)c1nc(-c2cccc(NS(=O)(=O)c3c(F)cccc3F)c2F)c(-c2ccnc(N)n2)s1` [DAB, Dabrafenib] the difference in pharmacokinetics ([1]; DAB monotherapy vs. combiDT (ΔOFV = −2.9, p > 0.05)) was “did not differ”, the “IIV CL/F, interindividual variability (coefficient of variation)” value (“IIV CL/F, interindividual variability” for short) ([1]; base DAB/OHD model) was 21.9% and the “IIV V2/F, interindividual variability (coefficient of variation)” value (“IIV V2/F, interindividual variability” below) ([1]; base DAB/OHD model) was 43.0%. For the same compound, the “IOV, inter-occasion variability on CL/F (coefficient of variation)” value (shortened to “IOV, inter-occasion variability on CL/F”) ([1]; base DAB/OHD model) was 17.2%, the “RUV of DAB, residual unexplained variability (proportional)” value ([1]; base DAB/OHD model) was 49.2% and the “Tlag, lag time” value ([1]; base DAB/OHD model) was 0.50 h. The “CL/F, apparent clearance of DAB” value ([1]; base DAB/OHD model, n = 73, steady state) was 17.7 L/h, the “CL/F, apparent clearance of DAB” value [1, 8] was 19.2 L/h and the “IIV CL/F, interindividual variability” value [1, 8] was 14.4%. The “IIV V2/F, interindividual variability” value [1, 8] was 69.4%, the “IOV, inter-occasion variability on CL/F” value [1, 8] was 17.0% and the “RUV of DAB, residual unexplained variability (proportional)” value [1, 8] was 48.2%. The “Tlag, lag time” value [1, 8] was 0.499 h, the Vd/F ([1]; base DAB/OHD model) was 39.5 L and the Vd/F [1, 8] was 38.3 L. For the same compound, the Vd/F ([1]; final DAB/OHD model) was 39.1 L, the “reduction of CL/F” value ([1]; comparing 20-year-old to 90-year-old patients) was 55% and the difference in pharmacokinetics ([1]; concomitant proton-pump inhibitor (PPI) intake (ΔOFV = −3.5, p > 0.05)) was “did not differ”. The “CL/F, apparent clearance of DAB” value ([1]; final DAB/OHD model) was 19.3 L/h, the “IIV CL/F, interindividual variability” value ([1]; final DAB/OHD model) was 16.0% and the “IIV V2/F, interindividual variability” value ([1]; final DAB/OHD model) was 50.8%. The “IOV, inter-occasion variability on CL/F” value ([1]; final DAB/OHD model) was 17.4%, the “RUV of DAB, residual unexplained variability (proportional)” value ([1]; final DAB/OHD model) was 48.7% and the “Tlag, lag time” value ([1]; final DAB/OHD model) was 0.499 h. The “base model variance of clearance explained by covariates (sex, age)” value ([1]; in vivo) was 47%, the “inter-occasion variability (IOV) on CL/F” value ([1]; model building) was 17% and the “reduction of CL/F” value ([1]; women vs. men) was 17%. The “patients in whom the drug dose was reduced” value ([2]; 52 MM patients) was 15%, the “patients in whom the drug was discontinued permanently” value ([2]; 52 MM patients) was 8% and the “patients who experienced a drug-related DLT” value ([2]; 52 MM patients) was 23%. For the same compound, the “median time to onset of drug-related DLT” value ([2]; human, in vivo) was 110 days, the “patients who discontinued DAB treatment because of cerebral progression” value ([3]; present cohort) was 72% and the “Risk of Death, HR (CI95%) for AUCM3” value ([3]; univariate Cox model, n = 30) was 1.02 (0.75–1.39). The “Risk of Progression, HR (CI95%) for AUCM3” value ([3]; univariate Cox model, n = 30) was 1.04 (0.82–1.32), the “ka, first-order absorption rate constant” value [4] was 1.8 fixed 1/h and the “passage of the intact blood brain barrier” value [5] was “may cross intact blood brain barrier”. For the same compound, the “unchanged molecule in feces” value [6] was “less than 22%”, the “first-order absorption rate constant (ka)” value ([6]; previously published value, fixed in the model) was 1.8 h⁻¹ and the CL/F [6, 9] was 17.0 L/h. The Q/F [6, 9] was 3.30 L/h, the lag time [6, 9] was 0.482 h and the AUC ([7]; AUC, median (range), patients with DAB-related DLT (n = 12), last AUC before onset of DLT) was 9620 ng·h/mL. For the same compound, the AUC ([7]; AUC, median (range), patients without DAB-related DLT (n = 40), average AUC over treatment course) was 7480 ng·h/mL, the AUC ([7]; mean AUCDAB, after DAB dose reduction, n = 8) was 5040 ng·h/mL and the AUC ([7]; mean AUCDAB, before DAB dose reduction, n = 8) was 9010 ng·h/mL. The AUC ([7]; median AUCM3 (mean AUC during the first three months of treatment), 30 MM patients of the exposure-survival analysis) was 7720 ng·h/mL and the “decrease in mean AUCDAB after DAB dose reduction” value ([7]; n = 8) was 1.8 fold.

From paper PMC7226106, “Population Pharmacokinetics/Pharmacodynamics of Dabrafenib Plus Trametinib in Patients with BRAF-Mutated Metastatic Melanoma” (Cancers, 2020)
